# Source: patent US11858910B2, “Pyridinylmethylenepiperidine derivatives and uses thereof” (SUNSHINE LAKE PHARMA CO., LTD., priority 2018, dated 2024)
# Read-outs that look alike come from different tables or passages of the source.
# Experiments:
# human 5-HT1F receptor = target: T1, human 5-HT1F receptor (Homo sapiens, UniProt P30939); assay: Activating effect on human 5-HT1F receptor transfected CHO-K1 cells (HitHunter cAMP detection kit); assay type: cell-based
# T1 construct: expressed in transfected cells; host or cells: CHO-K1
# T1 sequence (P30939 1-366): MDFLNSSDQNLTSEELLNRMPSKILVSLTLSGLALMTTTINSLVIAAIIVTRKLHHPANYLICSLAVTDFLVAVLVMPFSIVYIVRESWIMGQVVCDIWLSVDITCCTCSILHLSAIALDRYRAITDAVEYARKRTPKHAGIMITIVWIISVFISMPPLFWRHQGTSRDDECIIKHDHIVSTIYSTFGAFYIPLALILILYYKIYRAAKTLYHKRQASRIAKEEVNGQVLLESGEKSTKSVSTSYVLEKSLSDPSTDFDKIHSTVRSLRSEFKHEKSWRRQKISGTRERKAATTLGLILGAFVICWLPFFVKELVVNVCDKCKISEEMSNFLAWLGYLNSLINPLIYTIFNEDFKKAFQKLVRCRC
# Procedure: Experimental purposes: To evaluate the activating effect of the compound on CHO-K1 cells transfected human 5-HT1F receptor by using HitHunter cAMP detection kit.
# Experimental brief process: CHO-K1 cells were cultured in a 384 microporous plate. The volume of cell culture medium (Assay Complete™ Cell Plating Reagent, DIscoverX) was 20 μL and the cell density was 10,000/well. The cells were cultured overnight at 37° C. and 5% CO2. Then the culture medium was removed, and 15 μL of cAMP Assay Buffer (DIscoverX) was added into each well, and then 5 μL of test sample containing 4× sample (test compound or 5-HT) and 4× forskolin (final concentration of forskolin is 15 μM) was added. The microporous plate was placed at 37° C. for 30 minutes. Then 5 μL of cAMP Antibody Reagent (DiscoverX) and 20 μL of cAMP Working Detection Solution (DiscoverX) were added and incubated in the dark for 1 hour, and then 20 μL of cAMP Solution A was added and incubated in the dark for 3 hours. The microporous plate was placed in the Perkin Elmer Envision™ to read the intensity of the optical signal. The activation rate was calculated by the intensity of the optical signal obtained from testing the compounds with different concentrations ((1−(Y/Z))*100%=the activation rate, wherein, Y represents the intensity of the optical signal adding test sample, and Z represents the intensity of the optical signal adding only forskolin). The dose-effect curve of the compounds was calculated by Prism software, and the concentration of the agonist with half maximum response was calculated and expressed by EC50 value. The results were shown in Table A. 5-HT was used as a positive control drug to ensure the normal experimental system in this experiment.
# [1] = Pharmacokinetic evaluation after intravenous or gavage administration to rats; assay type: in vivo, SD rats
# Procedure: (§1) The inventors had evaluated the pharmacokinetics of the compounds of the invention in rats and dogs. Wherein animal information was detailed in Table 1.
# (§2) The compound was administered to the animal subjects in the form of 5% DMSO+60% PEG400+35% Saline solution or 10% DMSO+10% Kolliphor HS15+30% PEG400+50% Saline solution. The animals were fasted for 12 hours before administration, but drinking water freely. For the group of intravenous administration, the administration dose is 0.5 mg/kg or 1 mg/kg, and vein blood samples (0.15 mL) were collected at the time points of 0.083, 0.25, 0.5, 1.0, 2.0, 4.0, 6.0, 8.0 and 24 h (dogs) or 0.083, 0.25, 0.5, 1.0, 2.0, 5.0, 7.0 and 24 h (rats) after drug administration. EDTA-K2 as anticoagulant was pre-added into the blood vessel. The plasma solutions were collected by centrifuging each blood sample at 12,000 rpm for 2 minutes and kept at −20° C. or −70° C. For the group of gavage administration, the administration dose is 2.5 mg/kg or 5 mg/kg, and vein blood samples (0.15 mL) were collected at the time points of 0.25, 0.5, 1.0, 2.0, 4.0, 6.0, 8.0 and 24 h (dogs) or 0.25, 0.5, 1.0, 2.0, 5.0, 7.0 and 24 h (rats) after drug administration. EDTA-K2 as anticoagulant was pre-added into the blood vessel. The plasma solutions were collected by centrifuging each blood sample at 12,000 rpm for 2 minutes and kept at −20° C. or −70° C.
# (§3) After processing the above plasma sample (the frozen plasma was melted at room temperature and then whirled for 15 seconds. 10 to 20 μL of the plasma was taken out, and whirled with 120 to 150 μL of an acetonitrile solution containing an internal standard for 5 minutes. The mixture was centrifuged for 5 minutes at 4,000 rpm. 100 μL of the supernatant was taken out and mixed with 120 to 150 μL of methanol-water (v/v=1/1)), the concentration of compounds in plasma was analyzed by LC-MS/MS. […] The compound of the invention has better drug properties and better clinical application prospects. Wherein the pharmacokinetic parameters of examples 12 and 19 in rats were detailed in Table B1; the pharmacokinetic parameters of examples 12 and 19 in dogs were detailed in Table B2.
# [2] = Pharmacokinetic evaluation after intravenous or gavage administration to dogs; assay type: in vivo, Beagle dogs
# Procedure: as §1, §2, §3
# [3] = CHO-K1 cells, forskolin 15 μM, cAMP, read-out: EC50
# [4] = Beagle, dog, in vivo, iv, 0.5 mg/kg
# [5] = beagle, dog, in vivo, po, 2.5 mg/kg
structure (smiles),measurement,setting,value
"CN1CCC(=Cc2cccc(NC(=O)c3ccc(F)cc3F)n2)CC1 [Example 3, 2,4-difluoro-N-(6-((1-methylpiperidin-4-ylidene)methyl)pyridine-2-yl)benzamide]",EC50,human 5-HT1F receptor; [3],5.9 nM
"CN1CCC(=Cc2cccc(NC(=O)c3c(F)cc(F)cc3F)n2)CC1 [Example 5, 2,4,6-trifluoro-N-(6-((1-methylpiperidin-4-ylidene)methyl)pyridine-2-yl)benzamide]",EC50,human 5-HT1F receptor; [3],1.9 nM
"CN1CCC(=C(F)c2cccc(NC(=O)c3ccc(F)cc3F)n2)CC1 [Example 10, 2,4-difluoro-N-(6-(fluoro(1-methylpiperidin-4-ylidene)methyl)pyridine-2-yl)benzamide]",EC50,human 5-HT1F receptor; [3],3 nM
"CN1CCC(=C(F)c2cccc(NC(=O)c3c(F)cc(F)cc3F)n2)CC1 [Example 12, 2,4,6-trifluoro-N-(6-(fluoro(1-methylpiperidin-4-ylidene)methyl)pyridine-2-yl)benzamide]",AUC(0-inf),"[1]; SD, rat, plasma, iv, rats, i.v group, 1 mg/kg, read-out: AUCINF",114 ng·h/mL
same,AUC(0-t),"[1]; SD, rat, plasma, iv, rats, i.v group, 1 mg/kg, read-out: AUClast",111 ng·h/mL
same,clearance,"[1]; SD, rat, plasma, iv, rats, i.v group, 1 mg/kg, read-out: Cl",146 mL/min/kg
same,Cmax,"[1]; SD, rat, plasma, iv, rats, i.v group, 1 mg/kg, read-out: Cmax",80.5 ng/mL
same,MRT inf,"[1]; SD, rat, plasma, iv, rats, i.v group, 1 mg/kg, read-out: MRTINF",1.66 h
same,half-life,"[1]; SD, rat, plasma, iv, rats, i.v group, 1 mg/kg, read-out: T1/2 (converted)",1.38 h
same,Tmax,"[1]; SD, rat, plasma, iv, rats, i.v group, 1 mg/kg, read-out: Tmax",0.083 h
same,Vd,"[1]; SD, rat, plasma, iv, rats, i.v group, 1 mg/kg, read-out: Vss",14.6 L/kg
same,AUC(0-inf),"[1]; SD, rat, plasma, po, rats, i.g group, 5 mg/kg, read-out: AUCINF",354 ng·h/mL
same,AUC(0-t),"[1]; SD, rat, plasma, po, rats, i.g group, 5 mg/kg, read-out: AUClast",296 ng·h/mL
same,Cmax,"[1]; SD, rat, plasma, po, rats, i.g group, 5 mg/kg, read-out: Cmax",71.8 ng/mL
same,MRT inf,"[1]; SD, rat, plasma, po, rats, i.g group, 5 mg/kg, read-out: MRTINF",4.05 h
same,half-life,"[1]; SD, rat, plasma, po, rats, i.g group, 5 mg/kg, read-out: T1/2 (converted)",2.31 h
same,Tmax,"[1]; SD, rat, plasma, po, rats, i.g group, 5 mg/kg, read-out: Tmax",2 h
same,F,"[1]; rats, i.g group, 5 mg/kg",62%
same,EC50,human 5-HT1F receptor,1.5 nM
same,AUC(0-inf),"[2]; Beagle, dog, plasma, iv, dogs, i.v group, 1 mg/kg, read-out: AUCINF",660 ng·h/mL
same,AUC(0-t),"[2]; Beagle, dog, plasma, iv, dogs, i.v group, 1 mg/kg, read-out: AUClast",652 ng·h/mL
same,clearance,"[2]; Beagle, dog, plasma, iv, dogs, i.v group, 1 mg/kg, read-out: Cl",25.2 mL/min/kg
same,Cmax,"[2]; Beagle, dog, plasma, iv, dogs, i.v group, 1 mg/kg, read-out: Cmax",170 ng/mL
same,MRT inf,"[2]; Beagle, dog, plasma, iv, dogs, i.v group, 1 mg/kg, read-out: MRTINF",4.11 h
same,half-life,"[2]; Beagle, dog, plasma, iv, dogs, i.v group, 1 mg/kg, read-out: T1/2 (converted)",3.52 h
same,Tmax,"[2]; Beagle, dog, plasma, iv, dogs, i.v group, 1 mg/kg, read-out: Tmax",0.25 h
same,Vd,"[2]; Beagle, dog, plasma, iv, dogs, i.v group, 1 mg/kg, read-out: Vss",6.22 L/kg
same,AUC(0-inf),"[2]; Beagle, dog, plasma, po, dogs, i.g group, 5 mg/kg, read-out: AUCINF",705 ng·h/mL
same,AUC(0-t),"[2]; Beagle, dog, plasma, po, dogs, i.g group, 5 mg/kg, read-out: AUClast",691 ng·h/mL
same,Cmax,"[2]; Beagle, dog, plasma, po, dogs, i.g group, 5 mg/kg, read-out: Cmax",82.8 ng/mL
same,MRT inf,"[2]; Beagle, dog, plasma, po, dogs, i.g group, 5 mg/kg, read-out: MRTINF",5.98 h
same,half-life,"[2]; Beagle, dog, plasma, po, dogs, i.g group, 5 mg/kg, read-out: T1/2 (converted)",4.28 h
same,Tmax,"[2]; Beagle, dog, plasma, po, dogs, i.g group, 5 mg/kg, read-out: Tmax",1.67 h
same,F,"[2]; dogs, i.g group, 5 mg/kg",21.4%
"CCN1CCC(=C(F)c2cccc(NC(=O)c3c(F)cc(F)cc3F)n2)CC1 [Example 19, 2,4,6-trifluoro-N-(6-(fluoro(1-ethylpiperidin-4-ylidene)methyl)pyridin-2-yl)benzamide]",F,"[1]; SD, rat, in vivo, 5 mg/kg",105%
same,AUC(0-inf),"[1]; SD, rat, in vivo, iv, 1 mg/kg",259 ng·h/mL
same,AUC(0-t),"[1]; SD, rat, in vivo, iv, 1 mg/kg",240 ng·h/mL
same,Cmax,"[1]; SD, rat, in vivo, iv, 1 mg/kg",67.7 ng/mL
same,MRT inf,"[1]; SD, rat, in vivo, iv, 1 mg/kg",2.95 h
same,Tmax,"[1]; SD, rat, in vivo, iv, 1 mg/kg",0.5 h
same,Vd,"[1]; SD, rat, in vivo, iv, 1 mg/kg",11.4 L/kg
same,clearance,"[1]; SD, rat, in vivo, iv, 1 mg/kg",64.4 mL/min/kg
same,half-life,"[1]; SD, rat, in vivo, iv, 1 mg/kg",2.1 h
same,AUC(0-inf),"[1]; SD, rat, in vivo, po, 5 mg/kg",1320 ng·h/mL
same,AUC(0-t),"[1]; SD, rat, in vivo, po, 5 mg/kg",1260 ng·h/mL
same,Cmax,"[1]; SD, rat, in vivo, po, 5 mg/kg",169 ng/mL
same,MRT inf,"[1]; SD, rat, in vivo, po, 5 mg/kg",5.01 h
same,Tmax,"[1]; SD, rat, in vivo, po, 5 mg/kg",3.67 h
same,half-life,"[1]; SD, rat, in vivo, po, 5 mg/kg",3.06 h
same,EC50,human 5-HT1F receptor; [3],6.8 nM
same,F,"[2]; Beagle, dog, in vivo, 2.5 mg/kg",12.4%
same,AUC(0-inf),[2]; [4],634 ng·h/mL
same,AUC(0-t),[2]; [4],632 ng·h/mL
same,Cmax,[2]; [4],442 ng/mL
same,MRT inf,[2]; [4],1.39 h
same,Tmax,[2]; [4],0.083 h
same,Vd,[2]; [4],1.1 L/kg
same,clearance,[2]; [4],13.1 mL/min/kg
same,half-life,[2]; [4],1.06 h
same,AUC(0-inf),[2]; [5],392 ng·h/mL
same,AUC(0-t),[2]; [5],356 ng·h/mL
same,Cmax,[2]; [5],126 ng/mL
same,MRT inf,[2]; [5],3.26 h
same,Tmax,[2]; [5],1 h
same,half-life,[2]; [5],1.96 h
